Data reported in patent US6352958B1, “Cycloimido-substituted benzofused heterocyclic herbicides” (FMC Corporation, priority 1997, dated 2002).

Legend:
Assay type in all cases: in vivo
[1] = test system: soybean (Glycine max var. Winchester); assay: Preemergence herbicidal activity, soybean; conditions: Glycine max, pre-emergence, Rate of Application 0.3 Kg/Ha, examined after 12-17 days, read-out: PREEMERGENCE HERBICIDAL ACTIVITY (% CONTROL) SOY
[2] = test system: wheat (Triticum aestivum var. Lew); assay: Preemergence herbicidal activity, wheat; conditions: Triticum aestivum, pre-emergence, Rate of Application 0.3 Kg/Ha, examined after 12-17 days, read-out: PREEMERGENCE HERBICIDAL ACTIVITY (% CONTROL) WHT
[3] = test system: field corn (Zea mays var. Pioneer 3732); assay: Preemergence herbicidal activity, corn; conditions: Zea mays, pre-emergence, Rate of Application 0.3 Kg/Ha, examined after 12-17 days, read-out: PREEMERGENCE HERBICIDAL ACTIVITY (% CONTROL) CRN
[4] = test system: common cocklebur (Xanthium strumarium L.); assay: Preemergence herbicidal activity, cocklebur; conditions: Xanthium strumarium, pre-emergence, Rate of Application 0.3 Kg/Ha, examined after 12-17 days, read-out: PREEMERGENCE HERBICIDAL ACTIVITY (% CONTROL) XANPE
[5] = test system: blackgrass (Aloepecurus myosuroides); assay: Preemergence herbicidal activity, blackgrass; conditions: Alopecurus myosuroides, pre-emergence, Rate of Application 0.3 Kg/Ha, examined after 12-17 days, read-out: PREEMERGENCE HERBICIDAL ACTIVITY (% CONTROL) ALOMY
[6] = test system: green foxtail (Setaria viridis); assay: Preemergence herbicidal activity, green foxtail; conditions: Setaria viridis, pre-emergence, Rate of Application 0.3 Kg/Ha, examined after 12-17 days, read-out: PREEMERGENCE HERBICIDAL ACTIVITY (% CONTROL) SETVI
[7] = test system: Johnsongrass (Sorghum halepense); assay: Preemergence herbicidal activity, johnsongrass; conditions: Sorghum halepense, pre-emergence, Rate of Application 0.3 Kg/Ha, examined after 12-17 days, read-out: PREEMERGENCE HERBICIDAL ACTIVITY (% CONTROL) SORHA
[8] = test system: wheat (Triticum aestivum var. Lew); assay: Postemergence herbicidal activity, wheat; conditions: Triticum aestivum, post-emergence, rate of application 0.3 Kg/Ha, rated after 12-17 days, read-out: Postemergence herbicidal activity (% control) WHT
[9] = test system: morningglory (Ipomea lacunosa or Ipomea hederacea); assay: Postemergence herbicidal activity, morningglory; conditions: Ipomoea, post-emergence, rate of application 0.3 Kg/Ha, rated after 12-17 days, read-out: Postemergence herbicidal activity (% control) IPOSS
[10] = test system: common chickweed (Stellaria media); assay: Postemergence herbicidal activity, chickweed; conditions: Stellaria media, post-emergence, rate of application 0.3 Kg/Ha, rated after 12-17 days, read-out: Postemergence herbicidal activity (% control) STEME
[11] = test system: common cocklebur (Xanthium strumarium L.); assay: Postemergence herbicidal activity, cocklebur; conditions: Xanthium strumarium, post-emergence, rate of application 0.3 Kg/Ha, rated after 12-17 days, read-out: Postemergence herbicidal activity (% control) XANPE
[12] = test system: blackgrass (Aloepecurus myosuroides); assay: Postemergence herbicidal activity, blackgrass; conditions: Alopecurus myosuroides, post-emergence, rate of application 0.3 Kg/Ha, rated after 12-17 days, read-out: Postemergence herbicidal activity (% control) ALOMY
[13] = test system: green foxtail (Setaria viridis); assay: Postemergence herbicidal activity, green foxtail; conditions: Setaria viridis, post-emergence, rate of application 0.3 Kg/Ha, rated after 12-17 days, read-out: Postemergence herbicidal activity (% control) SETVI
[14] = test system: Johnsongrass (Sorghum halepense); assay: Postemergence herbicidal activity, johnsongrass; conditions: Sorghum halepense, post-emergence, rate of application 0.3 Kg/Ha, rated after 12-17 days, read-out: Postemergence herbicidal activity (% control) SORHA

Compound: CCc1nc2c(-n3c(=O)cc(C(F)(F)F)n(C)c3=O)c(F)cc(Cl)c2[nH]1 [Compound 367, 3-(4-CHLORO-2-ETHYL-6-FLUOROBENZIMIDAZOL-7-YL)-1-METHYL-6-TRIFLUOROMETHYL-2,4(1H,3H)-PYRIMIDINEDIONE]
- inhibition at 300 g/ha [1]: 100%
- inhibition at 300 g/ha [2]: 95%
- inhibition at 300 g/ha [3]: 100%
- inhibition at 300 g/ha [4]: 100%
- inhibition at 300 g/ha [5]: 90%
- inhibition at 300 g/ha [6]: 100%
- inhibition at 300 g/ha [7]: 100%
- inhibition at 300 g/ha [8]: 100%
- inhibition at 300 g/ha [9]: 100%
- inhibition at 300 g/ha [10]: 100%
- inhibition at 300 g/ha [11]: 100%
- inhibition at 300 g/ha [12]: 100%
- inhibition at 300 g/ha [13]: 100%
- inhibition at 300 g/ha [14]: 100%

Compound: CC(C)c1nc2c(-n3c(=O)cc(C(F)(F)F)n(C)c3=O)c(F)cc(Cl)c2o1 [Compound 28, 1-METHYL-6-TRIFLUOROMETHYL-3-[7-CHLORO-5-FLUORO-2-(1-METHYLETHYL)BENZOXAZOL4-YL]-2,4(1H,3H)-PYRIMIDINEDIONE]
- inhibition at 300 g/ha [1]: 100%
- inhibition at 300 g/ha [2]: 100%
- inhibition at 300 g/ha [3]: 95%
- inhibition at 300 g/ha [4]: 100%
- inhibition at 300 g/ha [5]: 100%
- inhibition at 300 g/ha [6]: 100%
- inhibition at 300 g/ha [7]: 100%
- inhibition at 300 g/ha [8]: 80%
- inhibition at 300 g/ha [9]: 100%
- inhibition at 300 g/ha [10]: 100%
- inhibition at 300 g/ha [11]: 90%
- inhibition at 300 g/ha [12]: 100%
- inhibition at 300 g/ha [13]: 100%
- inhibition at 300 g/ha [14]: 95%

Compound: Cn1c(C(F)(F)F)cc(=O)n(-c2c(F)cc(Cl)c3[nH]c(C(F)(F)F)cc23)c1=O [Compound 500, 3-(7-CHLORO-5-FLUORO-2-TRIFLUOROMETHYLINDOL-4-YL)-1-METHYL-6-TRIFLUOROMETHYL-2,4(1H,3H)-PYRIMIDINEDIONE]
- inhibition at 300 g/ha [1]: 95%
- inhibition at 300 g/ha [2]: 75%
- inhibition at 300 g/ha [3]: 90%
- inhibition at 300 g/ha [4]: 100%
- inhibition at 300 g/ha [5]: 75%
- inhibition at 300 g/ha [6]: 100%
- inhibition at 300 g/ha [7]: 100%
- inhibition at 300 g/ha [8]: 65%
- inhibition at 300 g/ha [9]: 100%
- inhibition at 300 g/ha [10]: 90%
- inhibition at 300 g/ha [11]: 100%
- inhibition at 300 g/ha [12]: 80%
- inhibition at 300 g/ha [13]: 100%
- inhibition at 300 g/ha [14]: 100%
